According to patent US20250340561A1, “QUINAZOLINE COMPOUND FOR INDUCING DEGRADATION OF G12D MUTANT KRAS PROTEIN” (Astellas Pharma Inc., priority 2021, published 2025):
Structures can show the parent of a compound that is named as a salt. Where two headings read alike, the source gives them in different places.

How the values were obtained:
[1] = test system: phosphorylation of ERK (Thr202/Tyr204); experiment: Test Example 2: ERK phosphorylation inhibition action in AsPC-1, Cell ELISA; assay type: cell-based, human; settings: Homo sapiens, ASPC1, 24 h, AsPC-1 cells, 0% = 1 μM trametinib
Procedure: Test Example 2: Evaluation of ERK Phosphorylation Inhibition Action on Human G12D Mutant KRAS-Positive Pancreatic Cancer Line AsPC-1
The ERK phosphorylation inhibition action of test compounds was evaluated by measuring phosphorylation of the 202th threonine (Thr202) and the 204th tyrosine (Tyr204) of ERK located downstream of the KRAS signal by Cell ELISA.
AsPC-1 cells were seeded on a 384-well plate (from Greiner bio-one) at 36 μL/well to give 2.0×10^4 cells per well. As for the cell culture conditions, a RPMI 1640 medium containing 10% fetal bovine serum was used in the presence of 5% CO2 at 37° C.
The next day, the test compounds (6 points having final concentrations in the range of 10 μM to 3.0 nM), trametinib (MEK inhibitor) of a final concentration of 1 μM as a positive control and DMSO, which was the solvent for the test compounds, as a negative control were diluted 100-fold with a fresh medium and were added at 4 μL per well. The cells were then cultured for 24 hours. After culturing, a 30% glyoxal solution (40% glyoxal [from Nacalai Tesque] was diluted with PBS) was quickly added at 30 μL per well, and the plate was allowed to stand for 90 minutes at room temperature to thus immobilize the cells. Then, the plate was centrifuged to remove the supernatant (using a centrifugal dehydrator machine, the supernatant was removed by the same method hereinafter), and 0.1% Triton X-100-containing PBS was added at 20 μL per well. After allowing to stand for 10 minutes at room temperature, the supernatant was removed by centrifugation, and the same operation was further repeated. Next, 0.5% SDS-containing PBS was added at 20 μL per well, and after allowing to stand at room temperature for 30 minutes, the supernatant was removed by centrifugation. Subsequently, a blocking solution (Intercept Blocking Buffer) was added at 20 μL per well, and the plate was allowed to stand for 1 hour at room temperature. The supernatant was removed by centrifugation, and an ERK (Thr202/Tyr204) phosphorylation antibody (Phospho-p44/42 MAPK (Erk 1/2) (Thr202/Tyr204) (D13.14.4E) XP Rabbit mAb; from Cell Signaling Technology) diluted 2,500-fold with a blocking solution was added at 10 or 15 μL per well as a primary antibody. The plate was allowed to stand at 4° C. overnight.
The next day, the plate was centrifuged to remove the supernatant. 0.05% Tween-20-containing PBS was added at 50 μL per well, and the supernatant was removed by centrifugation to thus wash each well. The washing was performed three times in total. After washing, Goat anti-Rabbit IgG H&L (IRDye 800CW) diluted 1,000-fold with a blocking solution was added at […] as a secondary antibody, and the plate was allowed to stand for 1 hour at room temperature. The plate was centrifuged to remove the supernatant, and each well was washed three times with 0.05% Tween-20-containing PBS in the same manner as after the primary antibody reaction. After removing the supernatant by centrifuging the plate, the plate was dried as it was with air at room temperature for 3 hours or more, and the 800-nm fluorescent signals were measured with Aerius.
With the signaling value at the time of addition of DMSO taken as 100% and with the signaling value at the time of addition of 1 μM trametinib taken as 0%, the 50% inhibition values (IC50) were calculated by Sigmoid-Emax model nonlinear regression analysis. The molecular weights of the test compounds were calculated as the molecular weights of the dihydrochloride for Example No. 22, the trihydrochlorides for Example Nos. 2-7, 9-12, 14-18 and 30, the tetrahydrochlorides for Example Nos. 19 and 46, the pentahydrochloride for Example No. 21 and the free forms forming no salt for the remaining Example Nos. The results for some test compounds of the formula (I) are shown in Table 3.

[2] = test system: human G12D mutant KRAS-positive pancreatic cancer line AsPC-1; experiment: Test Example 3: non-anchorage-dependent cell growth inhibition, spheroid 3D cell culture; assay type: cell-based; settings: Homo sapiens, ASPC1, 144 h, AsPC-1 spheroid 3D culture, 6 days, CellTiter Glo 2.0
Procedure: Test Example 3: Evaluation of Non-Anchorage-Dependent Cell Growth Inhibition Action on Human G12D Mutant KRAS-Positive Pancreatic Cancer Line AsPC-1
The non-anchorage-dependent cell growth inhibition action of test compounds was evaluated by spheroid 3D cell culture.
AsPC-1 cells were seeded on a low-cell-adhesive round bottom 384-well plate (PrimeSurface: from Sumitomo Bakelite) at 36 μL/well to give 5×10^2 cells per well. The cell culture was performed under the same conditions as in the Test Example 2.
The next day, the test compounds (6 points having final concentrations in the range of 10 μM to 3.0 nM) and DMSO, which was the solvent for the test compounds, as a negative control were diluted 100-fold with a fresh medium and were added at 4 μL per well. After culturing in the presence of […] at 37° C. for 6 days, CellTiter Glo 2.0 (from Promega) was added at 20 μL per well. After stirring with a plate mixer (from FINEPCR) at normal temperature for 1 hour, the luminescent signals were measured with ARVO X3 (from PerkinElmer).
With the signaling value in treatment with DMSO taken as […] and with the signaling value in the medium alone without cells taken as […], the […] inhibition values (IC50) were calculated by Sigmoid-Emax model nonlinear regression analysis. The molecular weights of the test compounds were calculated as the molecular weights of the dihydrochloride for Example No. 22, the trihydrochlorides for Example Nos. 2-7, 9-12, 14-18 and 30, the tetrahydrochlorides for Example Nos. 19 and 46, the pentahydrochloride for Example No. 21 and the free forms forming no salt for the remaining Example Nos. The results for some test compounds of the formula (I) are shown in Table 4.

Compound	IC50 [1]	IC50 [2]	IC50 ([1]; read-out: IC50)	IC50 ([2]; read-out: IC50)
Cc1ncsc1-c1ccc([C@H](CO)NC(=O)[C@@H]2C[C@@H](O)CN2C(=O)[C@H](C(C)C)n2cc(-c3ccc(COc4c(-c5c(C)c(F)cc6[nH]ncc56)c(C5CC5)cc5c(N6C[C@@H]7C[C@H]6CN7)nc(OCC6(CO)CCOCC6)nc45)cc3)nn2)cc1 (atropisomer, axis not shown) [Example 36]	0.031 µM	0.024 µM	–	–
Cc1ncsc1-c1ccc([C@H](CO)NC(=O)[C@@H]2C[C@@H](O)CN2C(=O)[C@H](C(C)C)n2cc(-c3ccc(COc4c(-c5c(C)c(F)cc6[nH]ncc56)c(C5CC5)cc5c(N6C[C@@H]7C[C@H]6CN7)nc(O[C@H](C)CN6CCOCC6)nc45)cc3)nn2)cc1 [Example 45]	0.011 µM	0.02 µM	–	–
CO[C@@H](C)COc1nc(N2C[C@@H]3C[C@H]2CN3)c2cc(C3CC3)c(-c3c(C)c(F)cc4[nH]ncc34)c(OCc3ccc(-c4cn([C@H](C(=O)N5C[C@H](O)C[C@H]5C(=O)N[C@@H](CO)c5ccc(-n6ccnc6C)cc5)C(C)C)nn4)cc3)c2n1 [Example 71]	–	–	0.038 µM	0.051 µM
Cc1ncsc1-c1ccc([C@H](CO)NC(=O)[C@@H]2C[C@@H](O)CN2C(=O)[C@H](C(C)C)n2cc(-c3ccc(COc4c(-c5c(C)c(F)cc6[nH]ncc56)c(C5CC5)cc5c(N6C[C@@H]7C[C@H]6CN7)nc(OC6CCOCC6)nc45)cc3F)nn2)cc1 [Example 49, (4R)-1-[(2S)-2-(4-{4-[({6-cyclopropyl-4-[(1S,4S)-2,5-diazabicyclo[2.2.1]heptan-2-yl]-7-(6-fluoro-5-methyl-1H-indazol-4-yl)-2-[(oxan-4-yl)oxy]quinazolin-8-yl}oxy)methyl]-2-fluorophenyl}-1H-1,2,3-triazol-1-yl)-3-methylbutanoyl]-4-hydroxy-N-{(1R)-2-hydroxy-1-[4-(4-methyl-1,3-thiazol-5-yl)phenyl]ethyl}-L-prolinamide]	0.021 µM	0.046 µM	–	–
Cc1ncsc1-c1ccc([C@H](CO)NC(=O)[C@@H]2C[C@@H](O)CN2C(=O)C(C(C)C)n2cc(-c3ccc(COc4c(-c5c(C)c(F)cc6[nH]ncc56)c(C5CC5)cc5c(N6C[C@@H]7C[C@H]6CN7)nc(OC6CCOCC6)nc45)cc3)cn2)cc1 (single isomer, unassigned) [Example 11]	0.039 µM	0.128 µM	–	–
Cc1ncsc1-c1ccc([C@H](CO)NC(=O)[C@@H]2C[C@@H](O)CN2C(=O)[C@H](C(C)C)n2cc(-c3ccc(COc4c(-c5c(C)c(F)cc6[nH]ncc56)c(C5CC5)cc5c(N6C[C@@H]7C[C@H]6CN7)nc(O[C@@H](C)[C@H](C)O)nc45)cc3)nn2)cc1 [Example 42]	0.022 µM	0.046 µM	–	–
Cc1ncsc1-c1ccc([C@H](CO)NC(=O)[C@@H]2C[C@@H](O)CN2C(=O)[C@H](C(C)C)n2cc(-c3ccc(COc4c(-c5c(C)c(F)cc6[nH]ncc56)c(C5CC5)cc5c(N6C[C@@H]7C[C@H]6CN7)nc(OC6CCOCC6)nc45)cc3)nn2)cc1 [Example 7, (4R)-1-[(2S)-2-(4-{4-[({6-cyclopropyl-4-[(1S,4S)-2,5-diazabicyclo[2.2.1]heptan-2-yl]-7-(6-fluoro-5-methyl-1H-indazol-4-yl)-2-[(oxan-4-yl)oxy]quinazolin-8-yl}oxy)methyl]phenyl}-1H-1,2,3-triazol-1-yl)-3-methylbutanoyl]-4-hydroxy-N-{(1R)-2-hydroxy-1-[4-(4-methyl-1,3-thiazol-5-yl)phenyl]ethyl}-L-prolinamide n hydrochloride]	–	–	0.017 µM	0.031 µM
COCC1(COc2nc(N3C[C@@H]4C[C@H]3CN4)c3cc(C4CC4)c(-c4c(C)c(F)cc5[nH]ncc45)c(OCc4ccc(-c5cn([C@H](C(=O)N6C[C@H](O)C[C@H]6C(=O)N[C@@H](CO)c6ccc(-c7scnc7C)cc6)C(C)C)nn5)cc4)c3n2)CC1 [Example 62]	0.015 µM	0.034 µM	–	–
Cc1ncsc1-c1ccc([C@@H](NC(=O)[C@@H]2C[C@@H](O)CN2C(=O)[C@H](C(C)C)n2cc(-c3ccc(COc4c(-c5c(C)c(F)cc6[nH]ncc56)c(C5CC5)cc5c(N6C[C@@H]7C[C@H]6CN7)nc(OC6CCOCC6)nc45)cc3)nn2)C(F)F)cc1 [Example 16]	–	–	0.067 µM	0.185 µM
